Data published in US20100291230A1 (priority 2006, published 2010).
“And” between values parts separate entries of the source, which are not always exact repeats. Equal entries are not always repeated.

What was measured:
Conditions in all cases: in vivo
Meloidogyne javanica = system: Meloidogyne javanica
[1] = system: nematode inoculum (eggs and larvae) in soil; design: species or system Meloidogyne javanica
[2] = system: root-knot nematodes Meloidogyne javanica

Row | Structure (SMILES) | reduction of galling infection (Meloidogyne javanica) | further results
1 | N[C@@H](CC(=O)O)C(=O)O [Aspartic acid] | most effective | –
2 | N[C@@H](CS)C(=O)O [Cysteine] | most effective | –
3 | NCCCC[C@H](N)C(=O)O [Lysine] | most effective | –
4 | CBr [Methyl Bromide] | – | control of nematode infection in the roots [1]: highly effective in controlling nematode infection in the roots
5 | O=[PH](O)O [phosphite, H3PO3] | – | galling incidence and galling index (nematode control) (Meloidogyne javanica): higher efficacy in controlling nematodes as compared with urea
6 | OP(O)O [phosphorous acid] | – | galling incidence [2]: 20% and 10%
